Reference: US5093320A, “Novel peptides inhibiting the maturation of t-lymphocytes and the activity of macrophages, pharmaceutical compositions containing them and process for preparing same” (priority 1989, dated 1992)
Where two headings read alike, the source gives them in different places. Positions of bridges follow the written chain, without caps; N, C: chain ends. Residues, ends and D or L forms follow the SMILES beside them. Chains are numbered I, II in the order given.

Experiments:
[1] = test system: primary antibody production; assay: Effect on the primary antibody production in newborn rats (haemagglutinin titre); assay type: in vivo, Wistar (LATI) rats; settings: 1 mg/kg i.p. within 12 hours after birth, haemagglutinin titre on day 7 following immunization with sheep erythrocytes
Description: This study is based on the phenomenon of agglutination. A specific antiserum adheres to the surface of the antigen forming large granules which settle rapidly (agglutinate).
Newborn Wistar (LATI) rats were intraperitoneally (i.p.) treated with an 1 mg/kg dose of the test substance within 12 hours after birth. On the 14th day, the animals were i.p. immunized by 0.5 ml of an 1% suspension of sheep erythrocytes. On day 7 following the immunization, blood was taken retroorbitally, after 30 minutes the sera were separated by centrifuging and the haemagglutinin titre was determined according to the method of Takatsy [Acta Microbiol. Acad. Sci. Hung. 3, 191 (1955)]. From the mixed sera (50 μl) of two rats, halving dilutions were prepared in 12 steps. Each sample was given 25 /ul of a 2% suspension of sheep erythroxytes The mixture was incubated at 37° C. for one hour to evaluate the agglutination. The data are summarized in Table 2 which show the suppressing (inhibitory) effect of the compounds on the primary antibody production as a percentage value in relation to the untreated animals. Immunostimulating substances show just the opposite effect in this test.

resting macrophages = assay type: in vivo, CFLP (LATI) mice; settings: mice
Description: The phagocytating capacity of resting macrophage cells was investigated on mice [J. Immunopharmacol. 4, 265 (1982-1983)]. […] After bleeding the animals, their peritonea were washed with 8 ml of PBS buffer solution (phosphate buffered saline, pH=7.2) each containing 10 IU of heparin. The cell suspension washed out from the peritoneum was made free of the erythrocytes by shocking with distilled water, then washed 3 times with PBS buffer solution. The sedimentation between two washings was achieved by centrifuging at 1000 rpm for 5 minutes. The concentration of each cell suspension was adjusted to 10^6 cell/ml and the suspension was settled for 30 minutes in a Boyden-chamber at 37° C. in an atmosphere containing 5% of carbon dioxide. Over the macrophages adhered to the glass wall, opsonized yeast was layered. After removing the non-phagocytated particles, those incorporated by the macrophages were counted in each cell. In Table 3, the percentage of decrease in the count of phagocytated yeast cells is given in relation to the macrophages isolated from the untreated animals as control.

[2] = test system: late hypersensitive (DTH) response; assay type: in vivo, CFLP (LATI) mice; settings: mice sensitized with oxazolone
Description: This test was carried out on male CFLP (LATI) mice weighing 25 to 30 g. At the beginning of the experiment, the mice were treated with a 3% solution of oxazolone in anhydrous ethanol by applying 20 μl of solution each on both ears and forepaws. […] The controls were treated only with saline. On day 10 of the experiment, 20 μl of an 2.5% olive oil solution of oxazolone were smeared on each ear of the animals. The thickness of the ears was twice measured, i.e. before and 24 hours after the administration of the antigen. The thickness was measured on both ears in the middle of the ear-lobes with an accuracy of 0.01 mm. The change was compared with the control group. The data concerning the suppression of the development of a DTH response are given as percentage values in Table 4.

antibody-producing cells = assay: Effect on the antibody-producing cells in newborn rats (plaque-forming cell count of splenocytes); assay type: in vivo, Wistar (LATI) rats; settings: 1 mg/kg i.p. within 12 hours of birth, immunized day 14 with sheep erythrocytes, splenocytes 7 days later, vs untreated control
Description: This investigation was carried out with splenocytes obtained from newborn rats according to the method of Canningham (Handbook of Experimental Immunology, Ed. D. M. Weir, Vol. 2., Blackwell, Oxford-London, page 285, 1978). Twelve Wistar (LATI) rats arising from a single litter were intraperitoneally (i.p.) treated with 7.5 μg of test substance in a dose of 1 mg/kg within 12 hours of their birth. On the 14th day after birth, the animals were i.p. immunized by 0.5 ml of an 1% suspension of sheep erythrocytes, then bled by decapitation after 7 days. From the splenocytes obtained from the animals, a homogeneous suspension was prepared using sheep erythrocyte suspension and complement which was then put into a chamber suitable for obtaining a monocellular layer. The chambers closed with paraffin were incubated at 37° C. for 45 minutes. Around the antibody-producing splenocytes, lytic areas, the so-called plaques, were formed. Under the effect of treatment with the suppressing substances, the number of the plaque-forming cells (PFC) was decreased. The data summarized in Table 1 illustrate this percentage decrease calculated on the basis of the cells obtained from the untreated control animals.

[3] = therapeutic dose does not significantly differ from the toxic one; cited from earlier work
[4] = 1 mg/kg s.c. daily for 7 days, count of phagocytated yeast cells vs untreated animals
[5] = 1 mg/kg i.p. on day 7, ear thickness 24 hours after antigen on day 10, vs saline control

SMILES: N=C(N)NCCC[C@H](N)C(=O)N[C@@H](CCCCN)C(=O)N[C@@H](CC(=O)O)C(=O)N[C@@H](CSSC[C@H](NC(=O)[C@H](CC(=O)O)NC(=O)[C@H](CCCCN)NC(=O)[C@@H](N)CCCNC(=N)N)C(N)=O)C(N)=O [(12)] (I: H-RKDC-NH2 / II: H-RKDC-NH2; disulfide I:4-II:4)
- Effect on the primary antibody production, Change in relation to the untreated control % [1]: -10.7%
- Change in the phagocytating capacity of resting macrophages, Change % (resting macrophages; [4]): -40.1%
- Suppression of the DTH response, Suppression % [2, 5]: 35.3%

SMILES: CC(C)C[C@H](NC(=O)[C@H](CCCCN)NC(=O)[C@H](CO)NC(=O)[C@@H](N)CCCCN)C(=O)O [(13), Lys-Ser-Lys-Leu] (H-KSKL-OH)
- Suppression of the DTH response, Suppression % [2, 5]: 28.2%

SMILES: CC(C)C[C@H](NC(=O)[C@H](CCCCN)NC(=O)[C@@H](N)CO)C(=O)O [(14), Ser-Lys-Leu] (H-Ser-Lys-Leu-OH)
- Change in the phagocytating capacity of resting macrophages, Change % (resting macrophages; [4]): -14.0%
- Suppression of the DTH response, Suppression % [2, 5]: 22.7%

SMILES: C[C@@H](O)[C@H](NC(=O)[C@H](CO)NC(=O)[C@H](CO)NC(=O)[C@@H](N)CO)C(=O)O [(15), Ser-Ser-Ser-Thr] (H-SSST-OH)
- Suppression of the DTH response, Suppression % [2, 5]: 18.0%

SMILES: C[C@@H](O)[C@H](NC(=O)[C@H](CCC(=O)O)NC(=O)[C@@H](N)CCCCN)C(=O)O [(16), Lys-Glu-Thr] (H-Lys-Glu-Thr-OH)
- Suppression of the antibody production, Change % (number of plaque-forming cells) (antibody-producing cells): -36.8%
- Suppression of the DTH response, Suppression % [2, 5]: 27.5%

SMILES: C[C@@H](O)[C@H](NC(=O)[C@H](CCC(=O)O)NC(=O)[C@@H](NC(=O)[C@@H](N)CCCCN)[C@@H](C)O)C(=O)O [(17), Lys-Thr-Glu-Thr] (H-KTET-OH)
- Suppression of the antibody production, Change % (number of plaque-forming cells) (antibody-producing cells): -23.2%
- Change in the phagocytating capacity of resting macrophages, Change % (resting macrophages; [4]): -17.5%
- Suppression of the DTH response, Suppression % [2, 5]: 35.5%

SMILES: CC(C)C[C@H](NC(=O)[C@H](CCCCN)NC(=O)[C@@H]1CCCN1)C(=O)N[C@H](C(=O)O)[C@@H](C)O [(18), Pro-Lys-Leu-Thr] (H-PKLT-OH)
- Suppression of the antibody production, Change % (number of plaque-forming cells) (antibody-producing cells): -19.4%
- Change in the phagocytating capacity of resting macrophages, Change % (resting macrophages; [4]): -11.7%

SMILES: C[C@@H](O)[C@H](NC(=O)[C@H](CCCCN)NC(=O)[C@@H](N)CCCCN)C(=O)N[C@@H](CCC(=O)O)C(=O)O [(19), Lys-Lys-Thr-Glu] (H-KKTE-OH)
- Effect on the primary antibody production, Change in relation to the untreated control % [1]: -10.8%
- Suppression of the antibody production, Change % (number of plaque-forming cells) (antibody-producing cells): -22.9%
- Change in the phagocytating capacity of resting macrophages, Change % (resting macrophages; [4]): -18.6%

SMILES: O=P1(N(CCCl)CCCl)NCCCO1 (stereo not drawn) [Cyclophosphamide, 2-[-bis(2-chloroethyl)amino]-tetrahydro-2H-1,3,2-oxazaphosphorine-2-oxide, reference compound]
- therapeutic index [3]: below 10
- Change in the phagocytating capacity of resting macrophages, Change % (resting macrophages; 150 mg/kg i.p. dose): -75.0%
- Suppression of the DTH response, Suppression % ([2]; 150 mg/kg i.p. dose): 72%

SMILES: Cn1cnc([N+](=O)[O-])c1Sc1ncnc2nc[nH]c12 [azathioprin, 6-(1-methyl-4-nitro-5-imidazolylthio)purine]
- therapeutic index [3]: below 10
